Where two headings read alike, the source gives them in different places.
Test system: prostate specific antigen (PSA)
Assay type: in vivo
Source text: Patients with mCRPC were assigned sequentially to dose levels in cohorts of 3 to 6 patients per dose level using standard 3×3 dose-escalation criteria.
Eligible patients who signed informed consent documents were initially enrolled into a dose escalation cohort where they will receive a single oral dose of ARN-509 followed by a one-week observation period (PK Week). Continuous dosing began on Cycle 1 Day 1 assuming no unacceptable toxicities were observed.
A minimum of 3 subjects at each dose level were monitored for a DLT through day 28 of Cycle 1.
The starting dose was 30 mg/day, with escalations to 60 mg, 90 mg, 120 mg, 180 mg, 240 mg, 300 mg, 390 mg, and 480 mg daily. It was anticipated that these dose levels span the anticipated pharmacologically active dose range and be within the safety margin indicated by the preclinical toxicology results.
Following the selection of 240 mg as the RP2D, additional eligible patients were enrolled in the Phase 2 portion of the study, consisting of 3 concurrent expansion cohorts at the MTD and/or RP2D to gather additional safety information and provide an initial signal of anti-tumor activity. The three expansion cohorts included:
It was expected that each patient with mCRPC would receive at least 3 cycles (12 weeks) of continuous treatment and each patient with non-metastatic CRPC will receive at least 4 cycles (16 weeks) of continuous treatment. Treatment was discontinued at any time for protocol-defined disease progression or unacceptable toxicity. Tumor evaluations were performed every 3 cycles (12 weeks) for patients with mCRPC and every 4 cycles (16 weeks) for patients with non-metastatic CRPC. Safety was assessed from the first dose through at least four weeks after the last dose or until resolution of drug-related toxicity, or when toxicity is deemed irreversible, whichever was longer.

CNC(=O)c1ccc(N2C(=S)N(c3cnc(C#N)c(C(F)(F)F)c3)C(=O)C23CCC3)cc1F [ARN-509]
PSA, Patient 10 (Cycle 4): 102 % of TO | PSA, Patient 13 (Cycle 4): 16.2 % of baseline | PSA decline from baseline, Patient 7 (Cycle 4, 8 and 10): > 90% | PSA below study start, Patient 13 (Cycle 11 and 12): > 60% | 12 week PSA Response (Patient 1): 30.49 | PSA at Time of BEAMing Analysis [Percent of Baseline] (Patient 1, Treatment Cycle 19): 195.4% of Baseline | 12 week PSA Response (Patient 2): −61.8 | PSA at Time of BEAMing Analysis [Percent of Baseline] (Patient 2, Treatment Cycle 10): 337.08% of Baseline | 12 week PSA Response (Patient 3): 22.7 | PSA at Time of BEAMing Analysis [Percent of Baseline] (Patient 3, Treatment Cycle 4): 122% of Baseline | 12 week PSA Response (Patient 4): 12.4 | PSA at Time of BEAMing Analysis [Percent of Baseline] (Patient 4, Treatment Cycle 5): 134% of Baseline | 12 week PSA Response (Patient 5): −70.65 | PSA at Time of BEAMing Analysis [Percent of Baseline] (Patient 5, Treatment Cycle 8): 16% of Baseline | 12 week PSA Response (Patient 6): −90.02 | PSA at Time of BEAMing Analysis [Percent of Baseline] (Patient 6, Treatment Cycle 10): 84.6% of Baseline | 12 week PSA Response (Patient 7): −98.6 | PSA [Percent of Day 0] (Patient 7, Treatment Cycle 4): 1.4% of Day 0 | PSA [Percent of Day 0] (Patient 7, Treatment Cycle 8): 3.3% of Day 0 | PSA [Percent of Day 0] (Patient 7, Treatment Cycle 10): 5.6% of Day 0 | PSA [Percent of Day 0] (Patient 7, Treatment Cycle 15): 41.2% of Day 0 | PSA [Percent of Day 0] (Patient 7, Treatment Cycle 19): 97.2% of Day 0 | PSA [Percent of Day 0] (Patient 7, Treatment Cycle 22): 281.0% of Day 0 | PSA at Time of BEAMing Analysis [Percent of Baseline] (Patient 7, Treatment Cycle 22): 281% of Baseline | 12 week PSA Response (Patient 8): −62.2 | PSA at Time of BEAMing Analysis [Percent of Baseline] (Patient 8, Treatment Cycle 16): 10.2% of Baseline | 12 week PSA Response (Patient 9): 26.38 | PSA at Time of BEAMing Analysis [Percent of Baseline] (Patient 9, Treatment Cycle 7): 185% of Baseline | 12 week PSA Response (Patient 10): 2.33 | PSA [Percent of Day 0] (Patient 10, Treatment Cycle 4): 102% of Day 0 | PSA [Percent of Day 0] (Patient 10, Treatment Cycle 7): 245% of Day 0 | PSA at Time of BEAMing Analysis [Percent of Baseline] (Patient 10, Treatment Cycle 7): 245% of Baseline | 12 week PSA Response (Patient 11): −49.76 | PSA at Time of BEAMing Analysis [Percent of Baseline] (Patient 11, Treatment Cycle 8): 143.88% of Baseline | 12 week PSA Response (Patient 12): −56.65 | PSA at Time of BEAMing Analysis [Percent of Baseline] (Patient 12, Treatment Cycle 7): 99.47% of Baseline | 12 week PSA Response (Patient 13): −83.79 | PSA [Percent of Day 0] (Patient 13, Treatment Cycle 4): 16.2% of Day 0 | PSA [Percent of Day 0] (Patient 13, Treatment Cycle 11): 31.7% of Day 0 | PSA at Time of BEAMing Analysis [Percent of Baseline] (Patient 13, Treatment Cycle 11): 31.7% of Baseline | PSA [Percent of Day 0] (Patient 13, Treatment Cycle 12): 39.5% of Day 0 | 12 week PSA Response (Patient 14): −43.21 | PSA at Time of BEAMing Analysis [Percent of Baseline] (Patient 14, Treatment Cycle 11): 150.5% of Baseline | 12 week PSA Response (Patient 15): 164.14 | PSA at Time of BEAMing Analysis [Percent of Baseline] (Patient 15, Treatment Cycle 3): 220% of Baseline | 12 week PSA Response (Patient 16): 89.09 | PSA at Time of BEAMing Analysis [Percent of Baseline] (Patient 16, Treatment Cycle 4): 189% of Baseline | 12 week PSA Response (Patient 17): −45.86 | PSA at Time of BEAMing Analysis [Percent of Baseline] (Patient 17, Treatment Cycle 4): 54.14% of Baseline | 12 week PSA Response (Patient 18): −95.65 | PSA at Time of BEAMing Analysis [Percent of Baseline] (Patient 18, Treatment Cycle 6): 7.34% of Baseline | 12 week PSA Response (Patient 19): −71.19 | PSA at Time of BEAMing Analysis [Percent of Baseline] (Patient 19, Treatment Cycle 11): 196.86% of Baseline | 12 week PSA Response (Patient 20): −30.88 | PSA at Time of BEAMing Analysis [Percent of Baseline] (Patient 20, Treatment Cycle 21): 89.3% of Baseline | 12 week PSA Response (Patient 21): −74.43 | PSA at Time of BEAMing Analysis [Percent of Baseline] (Patient 21, Treatment Cycle 10): 46.91% of Baseline | 12 week PSA Response (Patient 22): −82.7 | PSA at Time of BEAMing Analysis [Percent of Baseline] (Patient 22, Treatment Cycle 25): 0.19% of Baseline | 12 week PSA Response (Patient 23): 97.78 | PSA at Time of BEAMing Analysis [Percent of Baseline] (Patient 23, Treatment Cycle 8): 222.46% of Baseline | 12 week PSA Response (Patient 24): −74.86 | PSA at Time of BEAMing Analysis [Percent of Baseline] (Patient 24, Treatment Cycle 25): 4.89% of Baseline | 12 week PSA Response (Patient 25): −30.07 | PSA at Time of BEAMing Analysis [Percent of Baseline] (Patient 25, Treatment Cycle 12): 161% of Baseline | 12 week PSA Response (Patient 26): 96.51 | PSA at Time of BEAMing Analysis [Percent of Baseline] (Patient 26, Treatment Cycle 5): 214.85% of Baseline | 12 week PSA Response (Patient 27): −0.89 | PSA at Time of BEAMing Analysis [Percent of Baseline] (Patient 27, Treatment Cycle 13): 20.69% of Baseline | 12 week PSA Response (Patient 28): −33.59 | PSA at Time of BEAMing Analysis [Percent of Baseline] (Patient 28, Treatment Cycle 10): 126% of Baseline | 12 week PSA Response (Patient 29): −58.44 | PSA at Time of BEAMing Analysis [Percent of Baseline] (Patient 29, Treatment Cycle 13): 105% of Baseline | Patients exhibiting a 12 week ≧50% decline in PSA compared to baseline (across all dose groups): 14/30 | Recommended Phase 2 dose (RP2D) (human, in vivo, po, 28 days): 240 mg

Source: patent publication US9617602B2, “Methods and compositions for determining resistance to androgen receptor therapy” (Aragon Pharmaceuticals, Inc., priority 2012, dated 2017)
